{"source": "patent US10905586B2", "about": "“Methods and devices for drug delivery to ocular tissue using microneedle” (Emory University, priority 2006, dated 2021)", "assay": "Delivery and clearance of fluorescent molecule in suprachoroidal space of live rabbits", "format": "in vivo", "conditions": "live rabbit", "experimental": "The delivery of a fluorescent molecule (sodium fluorescein) to the suprachoroidal space was evaluated using rabbits according to approved live animal experimental protocols. A one dimensional scan of the eye (through line of sight) was taken within the first five minutes after injection to determine the dispersion of the fluorescent molecule in the eye (FIG. 14). The y-axis indicates the fluorescent intensity (i.e., the concentration) and the x-axis represents the position in the eye from front (160) to back (0). Thus, the results illustrate that within the first 5 minutes after injection, the fluorescein had already flowed through the suprachoroidal space to the back of the eye, with some remaining at the initial insertion site.\nSimilar scans were taken to evaluate the rate of clearance of fluorescein from the suprachoroidal space over time (FIG. 15). The fluorescent intensity was measured in two regions of the eye (the suprachoroidal space and mid-vitreous region) over time.", "data": [{"smiles": "O=C1OC2(c3ccc(O)cc3Oc3cc(O)ccc32)c2ccccc21", "note": "[sodium fluorescein]", "values": [{"measurement": "Distribution suprachoroidal space vs mid-vitreous region", "setting": "fluorescent intensity over time", "value": "remains in the suprachoroidal space without passing into the mid-vitreous region"}, {"measurement": "Time to substantial clearance from the suprachoroidal space", "setting": "suprachoroidal injection", "value": "≤ 24", "unit": "h"}, {"measurement": "Time after injection by which it had flowed through the suprachoroidal space to the back of the eye", "setting": "suprachoroidal injection, line of sight scan", "value": "≤ 5", "unit": "min"}]}]}
